Measured values as given in PubChem BioAssay AID1963850 (Molecular Pharmacology Branch, DTP, NCI, 2024).

Tested on: 192522-019-R-J2-PDC complex tumor spheroid viability
Assay: Anticancer human tumor 192522-019-R-J2-PDC patient-derived colon adenocarcinoma cell line growth inhibition [POLQ]
Conditions: for IC50: curve of first compound; for viability, T/C: stronger effect = lower value
Summary of the method: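 Patient-derived tumour cells were co-cultured with HUVEC and mesenchymal stem cells as multicellular spheroids at 37 °C. They were treated with POLQ inhibitors (novobiocin, ART-558, RP6685) alone or combined with other agents. Top concentrations were at or near clinical Cmax (otherwise 10 microM; SN-38 at 1 microM), decreasing in half-log steps.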

[1] = second compound 0.0316 µM, first compound 0.0316 µM
[2] = second compound 0.0316 µM, first compound 0.1 µM
[3] = second compound 0.0316 µM, first compound 0.316 µM
[4] = second compound 0.0316 µM, first compound 1 µM
[5] = second compound 0.0316 µM, first compound 3.16 µM
[6] = second compound 0.0316 µM, first compound 10 µM
[7] = second compound 0.1 µM, first compound 0.0316 µM
[8] = second compound 0.1 µM, first compound 0.1 µM
[9] = second compound 0.1 µM, first compound 0.316 µM
[10] = second compound 0.1 µM, first compound 1 µM
[11] = second compound 0.1 µM, first compound 3.16 µM
[12] = second compound 0.1 µM, first compound 10 µM
[13] = second compound 0.316 µM, first compound 0.0316 µM
[14] = second compound 0.316 µM, first compound 0.1 µM
[15] = second compound 0.316 µM, first compound 0.316 µM
[16] = second compound 0.316 µM, first compound 1 µM
[17] = second compound 0.316 µM, first compound 3.16 µM
[18] = second compound 0.316 µM, first compound 10 µM
[19] = second compound 1 µM, first compound 0.0316 µM
[20] = second compound 1 µM, first compound 0.1 µM
[21] = second compound 1 µM, first compound 0.316 µM
[22] = second compound 1 µM, first compound 1 µM
[23] = second compound 1 µM, first compound 3.16 µM
[24] = second compound 1 µM, first compound 10 µM
[25] = second compound 3.16 µM, first compound 0.0316 µM
[26] = second compound 3.16 µM, first compound 0.1 µM
[27] = second compound 3.16 µM, first compound 0.316 µM
[28] = second compound 3.16 µM, first compound 1 µM
[29] = second compound 3.16 µM, first compound 3.16 µM
[30] = second compound 3.16 µM, first compound 10 µM
[31] = second compound 10 µM, first compound 0.0316 µM
[32] = second compound 10 µM, first compound 0.1 µM
[33] = second compound 10 µM, first compound 0.316 µM
[34] = second compound 10 µM, first compound 1 µM
[35] = second compound 10 µM, first compound 3.16 µM
[36] = second compound 10 µM, first compound 10 µM
[37] = second compound 0.0316 µM, first compound 0.00316 µM
[38] = second compound 0.0316 µM, first compound 0.01 µM
[39] = second compound 0.1 µM, first compound 0.00316 µM
[40] = second compound 0.1 µM, first compound 0.01 µM
[41] = second compound 0.316 µM, first compound 0.00316 µM
[42] = second compound 0.316 µM, first compound 0.01 µM
[43] = second compound 1 µM, first compound 0.00316 µM
[44] = second compound 1 µM, first compound 0.01 µM
[45] = second compound 3.16 µM, first compound 0.00316 µM
[46] = second compound 3.16 µM, first compound 0.01 µM
[47] = second compound 10 µM, first compound 0.00316 µM
[48] = second compound 10 µM, first compound 0.01 µM
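Further: spheroids exposed to drugs for seven days before reading.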
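Wherever viability, T/C is given: 100% = DMSO vehicle control viability in luminescence.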

With C#Cc1c(F)ccc2cc(O)cc(-c3ncc4c(N5CC6CCC(C5)N6)nc(OCC56CCCN5CC(F)C6)nc4c3F)c12 (stereo not drawn) + Nc1ccc(C#CCN(C(=O)Cc2ncc(C(F)(F)F)cc2C(F)(F)F)c2ccc(F)cc2)nn1 the IC50 (second compound 0.0316 µM) was > 10000 nM, the IC50 (second compound 0.1 µM) was > 10000 nM and the IC50 (second compound 0.316 µM) was > 10000 nM. The IC50 (second compound 1 µM) was > 10000 nM, the IC50 (second compound 3.16 µM) was > 10000 nM and the IC50 (second compound 10 µM) was > 10000 nM. It also gave a viability, T/C [1] of 93.8%, a viability, T/C [2] of 88.8% and a viability, T/C [3] of 78.2%. For the same compound, the viability, T/C [4] was 80.9%, the viability, T/C [5] was 67.9% and the viability, T/C [6] was 68.5%. It also gave a viability, T/C [7] of 92.8%, a viability, T/C [8] of 89.3% and a viability, T/C [9] of 72.7%. For the same compound, the viability, T/C [10] was 80.8%, the viability, T/C [11] was 74.5% and the viability, T/C [12] was 73.3%. The viability, T/C [13] was 88.8%, the viability, T/C [14] was 82.3% and the viability, T/C [15] was 75.3%. It also gave a viability, T/C [16] of 69.7%, a viability, T/C [17] of 68.2% and a viability, T/C [18] of 76.2%. It also gave a viability, T/C [19] of 89.5%, a viability, T/C [20] of 76.2% and a viability, T/C [21] of 78.7%. The viability, T/C [22] was 77.8%, the viability, T/C [23] was 78% and the viability, T/C [24] was 70.7%. It also gave a viability, T/C [25] of 97.9%, a viability, T/C [26] of 81.7% and a viability, T/C [27] of 71.7%. For the same compound, the viability, T/C [28] was 73.2%, the viability, T/C [29] was 78.4% and the viability, T/C [30] was 70.4%. It also gave a viability, T/C [31] of 91.9%, a viability, T/C [32] of 79.5% and a viability, T/C [33] of 80.2%. It also gave a viability, T/C [34] of 77.2%, a viability, T/C [35] of 73.7% and a viability, T/C [36] of 79.8%.

Work on COc1cccc(OCCCN)c1-c1cc(Nc2cnc(C#N)cn2)n[nH]1 + Nc1ccc(C#CCN(C(=O)Cc2ncc(C(F)(F)F)cc2C(F)(F)F)c2ccc(F)cc2)nn1 yielded an IC50 (second compound 0.0316 µM) of 26.9 nM, an IC50 (second compound 0.1 µM) of 25.7 nM and an IC50 (second compound 0.316 µM) of 27.1 nM. For the same compound, the IC50 (second compound 1 µM) was 28.1 nM, the IC50 (second compound 3.16 µM) was 29.1 nM and the IC50 (second compound 10 µM) was 26.9 nM. For the same compound, the viability, T/C [37] was 102%, the viability, T/C [38] was 86% and the viability, T/C [1] was 44.1%. For the same compound, the viability, T/C [2] was 37.4%, the viability, T/C [3] was 40.7% and the viability, T/C [4] was 35.3%. For the same compound, the viability, T/C [39] was 102%, the viability, T/C [40] was 78.4% and the viability, T/C [7] was 43.5%. For the same compound, the viability, T/C [8] was 39.4%, the viability, T/C [9] was 35% and the viability, T/C [10] was 36.3%. It also gave a viability, T/C [41] of 102%, a viability, T/C [42] of 81.4% and a viability, T/C [13] of 45.2%. It also gave a viability, T/C [14] of 38.3%, a viability, T/C [15] of 37.5% and a viability, T/C [16] of 39.2%. For the same compound, the viability, T/C [43] was 96.8%, the viability, T/C [44] was 87.5% and the viability, T/C [19] was 45.7%. It also gave a viability, T/C [20] of 40.6%, a viability, T/C [21] of 40.1% and a viability, T/C [22] of 40.5%. The viability, T/C [45] was 101%, the viability, T/C [46] was 85.2% and the viability, T/C [25] was 47.2%. It also gave a viability, T/C [26] of 44.6%, a viability, T/C [27] of 45.3% and a viability, T/C [28] of 40.9%. For the same compound, the viability, T/C [47] was 99.5%, the viability, T/C [48] was 66.7% and the viability, T/C [31] was 46.7%. It also gave a viability, T/C [32] of 43.1%, a viability, T/C [33] of 52.2% and a viability, T/C [34] of 46.8%.

For CNCc1ccc(-c2[nH]c3cc(F)cc4c3c2CCNC4=O)cc1 + Cc1cccc(N(C)C(=O)C2C(O)CCN2c2nc(C)cc(C(F)(F)F)c2C#N)c1, the IC50 (second compound 0.0316 µM) was > 10000 nM, the IC50 (second compound 0.1 µM) was > 10000 nM and the IC50 (second compound 0.316 µM) was > 10000 nM. For the same compound, the IC50 (second compound 1 µM) was > 10000 nM, the IC50 (second compound 3.16 µM) was > 10000 nM and the IC50 (second compound 10 µM) was > 10000 nM. For the same compound, the viability, T/C [1] was 109%, the viability, T/C [2] was 96.2% and the viability, T/C [3] was 96.8%. For the same compound, the viability, T/C [4] was 100%, the viability, T/C [5] was 121% and the viability, T/C [6] was 91.2%. The viability, T/C [7] was 103%, the viability, T/C [8] was 104% and the viability, T/C [9] was 112%. It also gave a viability, T/C [10] of 108%, a viability, T/C [11] of 101% and a viability, T/C [12] of 111%. For the same compound, the viability, T/C [13] was 101%, the viability, T/C [14] was 113% and the viability, T/C [15] was 111%. The viability, T/C [16] was 103%, the viability, T/C [17] was 106% and the viability, T/C [18] was 102%. For the same compound, the viability, T/C [19] was 108%, the viability, T/C [20] was 115% and the viability, T/C [21] was 103%. It also gave a viability, T/C [22] of 112%, a viability, T/C [23] of 104% and a viability, T/C [24] of 110%. It also gave a viability, T/C [25] of 113%, a viability, T/C [26] of 113% and a viability, T/C [27] of 102%. It also gave a viability, T/C [28] of 102%, a viability, T/C [29] of 122% and a viability, T/C [30] of 110%. For the same compound, the viability, T/C [31] was 107%, the viability, T/C [32] was 106% and the viability, T/C [33] was 112%. It also gave a viability, T/C [34] of 107%, a viability, T/C [35] of 113% and a viability, T/C [36] of 108%.

CC[C@@]1(O)C(=O)OCc2c1cc1n(c2=O)Cc2cc3c(CN(C)C)c(O)ccc3nc2-1 + Nc1ccc(C#CCN(C(=O)Cc2ncc(C(F)(F)F)cc2C(F)(F)F)c2ccc(F)cc2)nn1 was tested, and the IC50 (second compound 0.0316 µM) was > 100 nM, the IC50 (second compound 0.1 µM) was > 100 nM and the IC50 (second compound 0.316 µM) was > 100 nM. The IC50 (second compound 1 µM) was > 100 nM, the IC50 (second compound 3.16 µM) was > 100 nM and the IC50 (second compound 10 µM) was > 100 nM. It also gave a viability, T/C (second compound 0.0316 µM, first compound 0.000316 µM) of 96.2%, a viability, T/C (second compound 0.0316 µM, first compound 0.001 µM) of 103% and a viability, T/C [37] of 97.1%. For the same compound, the viability, T/C [38] was 108%, the viability, T/C [1] was 98.5% and the viability, T/C [2] was 77.3%. The viability, T/C (second compound 0.1 µM, first compound 0.000316 µM) was 111%, the viability, T/C (second compound 0.1 µM, first compound 0.001 µM) was 105% and the viability, T/C [39] was 103%. It also gave a viability, T/C [40] of 99%, a viability, T/C [7] of 107% and a viability, T/C [8] of 79.1%. For the same compound, the viability, T/C (second compound 0.316 µM, first compound 0.000316 µM) was 107%, the viability, T/C (second compound 0.316 µM, first compound 0.001 µM) was 109% and the viability, T/C [41] was 97.8%. The viability, T/C [42] was 103%, the viability, T/C [13] was 95.7% and the viability, T/C [14] was 77.7%. For the same compound, the viability, T/C (second compound 1 µM, first compound 0.000316 µM) was 113%, the viability, T/C (second compound 1 µM, first compound 0.001 µM) was 104% and the viability, T/C [43] was 106%. For the same compound, the viability, T/C [44] was 109%, the viability, T/C [19] was 97.8% and the viability, T/C [20] was 78.2%. It also gave a viability, T/C (second compound 3.16 µM, first compound 0.000316 µM) of 99.6%, a viability, T/C (second compound 3.16 µM, first compound 0.001 µM) of 99.9% and a viability, T/C [45] of 103%. For the same compound, the viability, T/C [46] was 99.3%, the viability, T/C [25] was 97.5% and the viability, T/C [26] was 84.8%. The viability, T/C (second compound 10 µM, first compound 0.000316 µM) was 106%, the viability, T/C (second compound 10 µM, first compound 0.001 µM) was 94.7% and the viability, T/C [47] was 101%. For the same compound, the viability, T/C [48] was 95.1%, the viability, T/C [31] was 92.3% and the viability, T/C [32] was 87%.
